Like-named read-outs stand apart in the source and are kept apart here.
How the values were obtained:
[1] = tested on: M. tuberculosis (mc^26230); assay type: cell-based, Mycobacterium tuberculosis
[2] = tested on: macrophages; experiment: Toxicity of GTSM and ATSM towards macrophages (50% reduction in viability); assay type: cell-based
Text: Fluorescence intensity was a measure of cell viability and was shown as percent of viability of untreated cells that were not exposed to GTSM-Cu or ATSM-Cu. The inhibitory concentration (IC50) was estimated based on the shape of the curve, and indicates the concentration at which a 50% decrease in viability is observed, and the therapeutic index was estimated based on the lethal dose (LD50) of these compounds for macrophages, which indicates a 50% reduction in viability. The LD50 of GTSM towards macrophages, the main residential cell type for M. tuberculosis, is 10 μM. […] The therapeutic index calculates as TI=LD50/IC50

[3] = concentrations higher than 10 μM could not be tested

CNC1=NN=C(C)C(C)=NN=C(NC)[S][Cu][S]1 [ATSM-Cu complex]
activity against Mycobacterium tuberculosis ([1]; copper complex, FIG. 5 / FIG. 6): active

CNC(=S)N/N=C(C)/C(C)=N/NC(=S)NC [ATSM]
Mycobacterium tuberculosis cell viability [1]: decreased significantly | toxicity towards macrophages ([2]; up to 10 μM): did not show any toxicity | solubility [3]: limited solubility

CNC(=S)NN=CC=NNC(=S)NC [GTSM]
therapeutic index (TD50/IC50; TI=LD50/IC50) ([1]; […], copper complex, estimated): 25 | Mycobacterium tuberculosis cell viability ([1]; complexed with copper, 10 μM copper, fluorescence 12 hours after AlamarBlue addition): decreased significantly | LD50 towards macrophages ([2]; 50% reduction in viability of macrophages): 10 µM
